Results from US20230293629A1, “METHODS FOR ATTENUATING RELEASE OF INFLAMMATORY MEDIATORS AND PEPTIDES USEFUL THEREIN” (BIOMARCK PHARMACEUTICALS LTD., priority 2006, published 2023).
Where a SMILES comes first, the peptide text is derived from it. The star is where a group is joined. Myristoyl = CCCCCCCCCCCCCC(=O)*

Test system: isolated canine neutrophils
Experiment: MPO secretion from isolated canine neutrophils stimulated with PMA + 8-Br-cGMP (FIG. 6, 10, 11)
Assay type: cell-based
Conditions: for MPO secretion: FIG. 6, 100 nM PMA and 10 μM 8-Br-cGMP
Text: The invention also relates to a new method for blocking any cellular exocytotic secretory process, especially those releasing inflammatory mediators from granules contained within inflammatory cells, whose stimulatory pathways involve the protein kinase C (PKC) substrate MARCKS protein and release of contents from membrane-bound vesicles. Specifically, the inventors have shown that stimulated release of the inflammatory mediator myloperoxidase from human (FIG. 6) or canine (FIG. 7) neutrophils can be blocked in a concentration-dependent manner by the MANS peptide. […] 10 or 100 μM of a control peptide (RNS) has no effect on MPO secretion. In FIG. 7, isolated neutrophils were stimulated to secrete myloperoxidase (MPO) with 100 nM PMA and 10 μM 8-Br-cGMP. […] 10 or 100 μM of a control peptide (RNS) has no effect on MPO secretion. Thus, the peptide may be used therapeutically to block the release of mediators of inflammation secreted from infiltrating inflammatory cells in any tissues. Many of these released mediators are responsible for the extensive tissue damage observed in a variety of chronic inflammatory diseases (i.e., respiratory diseases such as asthma, chronic bronchitis and COPD, inflammatory bowel diseases including ulcerative colitis and Crohn's disease, autoimmune diseases, skin diseases such as rosacea, eczema; and severe acne, arthritic and pain syndromes such as rheumatoid arthritis and fibromyalgia). This invention may be useful for treating diseases such as arthritis, chronic bronchitis, COPD and cystic fibrosis. This invention is accordingly useful for the treatment in both human and animal diseases, especially those affecting equines, canines, felines, and other household pets.
FIGS. 8-12 show MPO secretion for both humans and canines. In all of these experiments, isolated neutrophils were stimulated with LPS at a concentration of 1×10^−6 M for 10 minutes at 37° C. prior to adding the stimuli as indicated in the figures. The LPS primes the cells so they can respond to a secretagogue.
Isolation of PMNs from canine blood—The steps involved in isolating PMN include collecting 10 ml ACD anticoagulated blood. Then layering 5 ml on 3.5 ml PMN isolation media while ensuring that the PMN isolation media (IM) was at room temperature (RI). Next, the blood was centrifuged at room temperature for 30′, 550×g at 1700 RPMs. The low lower white band was transferred into 15 ml conical centrifuge tube (CCFT). Next, 2V HESS with 10% fetal bovine serum […] was added and centrifuged at room temperature for 10′, 400×g at 1400 RPMs. The pellet was then resuspended in 5 ml 1-1ESS with PBS. The cell suspension was added to 50 ml CCFT containing 20 ml of ice cold 0.88% NH4Cl and inverted two to three times. The resulting product was centrifuged for 10′, 800×g at 2000 RPMs, then aspirated and resuspended in 5 ml HBSS with FBS. The prep was examined by counting and cytospin and preferably for whole blood, the cell number should be between 10^9-10^11 cells and for PMNs, cell number should be between 2-4×10^7 cells. See generally, Wang et al., J. Immunol., “Neutrophil-induced changes in the biomechanical properties of endothelial cells: roles of ICAM-1 and reactive oxygen species,” 6487-94 (2000).
MPO Colorimetric Enzyme Assay—Samples were assayed for MPO activity in 96 well round bottom microtiter plates using a sandwich ELISA kit (R & D Systems, Minneapolis, Minn.). […]

With CCCCCCCCCCCCCC(=O)O[C@@H]1[C@@H](C)[C@@]2(O)[C@@H](C=C(CO)C[C@]3(O)C(=O)C(C)=C[C@@H]23)[C@@H]2C(C)(C)[C@]12OC(C)=O [PMA, phorbol 12-myristate 13-acetate] the “MPO secretion from LPS-stimulated canine neutrophils” value (FIG. 10, PMA alone, enhanced concentration-dependently by co-stimulation with 8-Br-cGMP) was “small increase”.
For CCCCCCCCCCCCCC(=O)NCC(=O)N[C@@H](C)C(=O)N[C@@H](CCC(N)=O)C(=O)N[C@@H](Cc1ccccc1)C(=O)N[C@@H](CO)C(=O)N[C@@H](CCCCN)C(=O)N[C@H](C(=O)N[C@@H](C)C(=O)N[C@@H](C)C(=O)N[C@@H](CCCCN)C(=O)NCC(=O)N[C@@H](CCC(=O)O)C(=O)N[C@@H](C)C(=O)N[C@@H](C)C(=O)N[C@@H](C)C(=O)N[C@@H](CCC(=O)O)C(=O)N[C@@H](CCCNC(=N)N)C(=O)N1CCC[C@H]1C(=O)NCC(=O)N[C@@H](CCC(=O)O)C(=O)N[C@@H](C)C(=O)N[C@@H](C)C(=O)N[C@H](C(=O)N[C@@H](C)C(=O)O)C(C)C)[C@@H](C)O [MANS] (Myristoyl-GAQFSKTAAKGEAAAERPGEAAVA-OH; C-terminus assumed), the MPO secretion (10 μM peptide) was “slight decrease” and the MPO secretion (100 (unit not given) peptide) was “decreased secretion of MPO to control levels”.
With CCCCCCCCCCCCCC(=O)NCC(=O)N[C@H](C(=O)N[C@@H](C)C(=O)N1CCC[C@H]1C(=O)N[C@@H](C)C(=O)N[C@@H](C)C(=O)N[C@@H](CCC(=O)O)C(=O)NCC(=O)N[C@@H](C)C(=O)NCC(=O)N[C@@H](C)C(=O)N[C@@H](CCC(=O)O)C(=O)N[C@H](C(=O)N[C@@H](CCCCN)C(=O)N[C@@H](CCCNC(=N)N)C(=O)N[C@@H](C)C(=O)N[C@@H](CO)C(=O)N[C@@H](C)C(=O)N[C@@H](CCC(=O)O)C(=O)N[C@@H](C)C(=O)N[C@@H](CCCCN)C(=O)N[C@@H](CCC(N)=O)C(=O)N[C@@H](C)C(=O)N[C@@H](Cc1ccccc1)C(=O)O)C(C)C)[C@@H](C)O [RNS, reference compound] (Myristoyl-GTAPAAEGAGAEVKRASAEAKQAF-OH; C-terminus assumed) the MPO secretion (10 or 100 μM peptide) was “no effect”.
